{
  "source": "patent US4146624A",
  "about": "“Method of treating viruses with bis-basic ketones of dibenzofuran” (Richardson-Merrell Inc., priority 1970, dated 1979)",
  "tested_on": "Encephalomyocarditis",
  "experiment": "in vivo antiviral study, mice challenged subcutaneously with encephalomyocarditis virus",
  "details": "observation 9 days",
  "description": "Examples 25 to 36 illustrate in vivo antiviral studies with compounds, also referred to as active ingredients, of this invention. In each of the examples the compounds were antivirally active. […] The dosage levels of the compounds used in the examples were within the range of 10 to 250 mg. per kg. of animal body weight for each time the compound was administered.\nTable A lists the active ingredient which was administered in each of the examples. Although it is believed that the headings in the examples are self-explanatory, some of the headings are explained as follows. The \"challenge,\" that is, the inoculation with a virus used is generally fatal to all the untreated, that is, control animals in the experiment. \"Time of death\" refers to the average time of death for the untreated animals. The \"Treatment\" was prophylactic or therapeutic or both. The term \"volume\" refers to the volume of composition administered per dose which contained the active ingredient dissolved in sterile water which also contained 0.15% of hydroxyethylcellulose.",
  "key": {"[1]": {"details": "prophylactic, 250 mg/kg oral, 22 hrs. pre-challenge, challenge 6 LD50"}, "[2]": {"details": "Proph. & Therap., 50 mg/kg subcutaneous, 28,22,2 hrs. pre- and 2 hrs. post-challenge, challenge 10 LD50"}},
  "note": "Where a name gives a salt, the structure may show the parent alone.",
  "data": [
    {"molecule": "O=C(CCCN1CCCCC1)c1ccc2oc3ccc(C(=O)CCCN4CCCCC4)cc3c2c1", "note": "[Example 25, 2,8-bis-(4-piperidinobutyryl)dibenzofuran]", "values": [
      {"measurement": "antiviral activity", "setting": "prophylactic, 50 mg/kg subcutaneous, 28,22,2 hrs. pre-challenge, challenge 6 LD50", "value": "Yes"},
      {"measurement": "antiviral activity", "setting": "[1]", "value": "Yes"}
    ]},
    {"molecule": "CC1CCN(CCCC(=O)c2ccc3oc4ccc(C(=O)CCCN5CCC(C)CC5)cc4c3c2)CC1", "note": "[Example 27, 2,8-bis-[4-(4-methylpiperidino)butyryl]dibenzofuran]", "values": [
      {"measurement": "antiviral activity", "setting": "Proph. & Therap., 10 mg/kg subcutaneous, 28,22,2 hrs. pre- and 2 hrs. post-challenge, challenge 6 LD50", "value": "Yes"},
      {"measurement": "antiviral activity", "setting": "[1]", "value": "Yes"}
    ]},
    {"molecule": "O=C(CCCN1CCC(Cc2ccccc2)CC1)c1ccc2oc3ccc(C(=O)CCCN4CCC(Cc5ccccc5)CC4)cc3c2c1", "note": "[Example 29, 2,8-bis-[4-(4-benzylpiperidino)butyryl]dibenzofuran]", "values": [
      {"measurement": "antiviral activity", "setting": "Proph. & Therap., 10 mg/kg subcutaneous, 28,22,2 hrs. pre- and 2 hrs. post-challenge, challenge 18 LD50", "value": "Yes"}
    ]},
    {"molecule": "O=C(CCCN1CCOCC1)c1ccc2oc3ccc(C(=O)CCCN4CCOCC4)cc3c2c1", "note": "[Example 30, 2,8-bis-(4-morpholinobutyryl)dibenzofuran]", "values": [
      {"measurement": "antiviral activity", "setting": "[2]", "value": "Yes"}
    ]},
    {"molecule": "O=C(CN1CCCCC1)c1ccc2oc3ccc(C(=O)CN4CCCCC4)cc3c2c1", "note": "[Example 31, 2,8-bis-(piperidinoacetyl)dibenzofuran]", "values": [
      {"measurement": "antiviral activity", "setting": "Proph. & Therap., 250 mg/kg subcutaneous, 28,22,2 hrs. pre- and 2 hrs. post-challenge, challenge 32 LD50", "value": "Yes"},
      {"measurement": "antiviral activity", "setting": "prophylactic, 250 mg/kg oral, 22 hrs. pre-challenge, challenge 32 LD50", "value": "Yes"}
    ]},
    {"molecule": "CCN(CC)CC(=O)c1ccc2oc3ccc(C(=O)CN(CC)CC)cc3c2c1", "note": "[Example 33, 2,8-bis-[2-(diethylamino)acetyl]dibenzofuran dihydrochloride hemihydrate]", "values": [
      {"measurement": "antiviral activity", "setting": "Proph. & Therap., 50 mg/kg subcutaneous, 28,22,2 hrs. pre- and 2 hrs. post-challenge, challenge 12 LD50", "value": "Yes"},
      {"measurement": "antiviral activity", "setting": "prophylactic, 250 mg/kg oral, 22 hrs. pre-challenge, challenge 12 LD50", "value": "Yes"}
    ]},
    {"molecule": "CN(C)CC(=O)c1ccc2oc3ccc(C(=O)CN(C)C)cc3c2c1.Cl.Cl.O.O", "note": "[Example 35, 2,8-bis-[2-(dimethylamino)acetyl]dibenzofuran dihydrochloride dihydrate]", "values": [
      {"measurement": "antiviral activity", "setting": "Proph. & Therap., 50 mg/kg oral, 28,22,2 hrs. pre- and 2 hrs. post-challenge, challenge 10 LD50", "value": "Yes"},
      {"measurement": "antiviral activity", "setting": "[2]", "value": "Yes"}
    ]}
  ]
}
